{"source": "patent US20140179786A1", "about": "“Treatment of Alzheimer's Disease Using Tolfenamic Acid” (Board of Governors for Higher Education, State of Rhode …, priority 2012, published 2014)", "key": {"tau protein": {"test_system": "tau protein", "experiment": "total tau protein levels in mouse cortex by Western blot", "format": "in vivo, mice", "details": "0, 5 and 50 mg/kg/day for 34 days; vs control; p<0.05; dose of the value not stated", "experimental": "(§1) It has been discovered that tolfenamic acid lowers the levels of the transcription factor Sp1, and consequently reduce the levels of an Sp1 target gene, APP, along with its pathogenic cleavage product Aβ. […] Therefore, in the study design 0, 5 and 50 mg/kg/day tolfenamic acid was administered for 34 days. […] Total mRNA levels were analyzed by real time PCR with β-actin as endogenous control. Protein expression was measured by Western blot analysis and quantified as a ratio to the house keeping protein β-actin (antibodies: T9450, Sigma-Aldrich, MO; 4970, Cell Signaling, MA). […] Values shown are the mean ±SEM."}, "CDK5 [1]": {"test_system": "CDK5", "experiment": "CDK5 gene expression in the cerebral cortex", "format": "in vivo, mice", "details": "daily administration for a month; 5 and 50 mg/kg groups vs control, p<0.05", "experimental": "(§2) Since Sp1 also regulates CDK5 activators, the effects of tolfenamic acid on CDK5 were also tested. […] 3A (using one-way ANOVA F(2,13)=59.647, p=2.8×10^−7 Tukey-Kramer post-test p<0.05 for the C vs the 5 mg/kg group and for the C vs the 50 mg/kg group). […] When comparing the 50 mg/kg dose group to the control however, by Tukey-Kramer test, the 40% lowering in CDK5 from control was statistically significant (p<0.05)."}, "[2]": {"test_system": "homozygous APP YAC transgenic mice, line R1.40", "experiment": "Y-maze spontaneous alternation, working memory", "format": "in vivo", "details": "day 33", "experimental": "In order to examine the ability of tolfenamic acid to improve the learning and memory deficits in AD transgenic mice model, male and female homozygous APP YAC transgenic, line R1.40, and wild type C57BL/6 mice aging between 20-24 months were used. Four groups of similar age and gender variation were administered vehicle or tolfenamic acid daily via oral gavages for 34 days; one transgenic group was administered 5 mg/kg/day tolfenamic acid in corn oil (n=7); the second transgenic group was administered 50 mg/kg/day tolfenamic acid in corn oil (n=7), the third transgenic group was administered corn oil, the vehicle, and the last group which consisted of wild type C57BL/6 mice was administered vehicle (n=8). Upon conducting the 8 acquisition sessions, probe trials on Day 1 and Day 11 following the last day of training were performed to assess the long-term memory retention by studying the preference of the mice to the correct quadrant that contained the hidden platform. On day 33, mice were tested for spontaneous alternation in Y-maze, defined as the percentage of the number of arm entries different from the previous two entries divided by the total arm entries minus two. Finally, on Day 35, mice were euthanized and brain tissue was removed and stored at −80° C."}, "tau gene": {"test_system": "tau gene", "experiment": "tau mRNA expression in mouse cortex by real time PCR", "format": "in vivo, mice", "details": "0, 5 and 50 mg/kg/day for 34 days; vs control; dose of the value not stated", "experimental": "as §1"}, "[3]": {"test_system": "tau phosphorylated at Ser 235", "experiment": "P-tau at Ser 235 by Western blotting", "format": "in vivo, mice", "details": "5 and 50 mg/kg groups vs control, p<0.05", "experimental": "(§3) As phosphorylation of tau affects its function and its ability to bind to microtubules, it was important to test how phosphorylated tau is affected by the treatment. P-tau levels were analyzed by Western blotting using specific antibodies. P-tau at Ser 235 (as shown in FIG. 4A) and P-tau at Thr 181 (as shown in FIG. 4B) were lowered by both doses of tolfenamic acid as shown in FIGS. 4A and 4B. Tau phosphorylated at Ser 235 was lowered by about 15% as indicated by one-way ANOVA (F(2,11)=6.105, p=0.0165), Tukey-Kramer post-test p<0.05 for the C vs the 5 mg/kg group and for the C vs the 50 mg/kg group. P-tau at Thr 181 was lowered by about 30%, one-way ANOVA F(2,10)=7.272, p=0.0112, Tukey-Kramer post-test p<0.05 for the C vs the 5 mg/kg group and for the C vs the 50 mg/kg group."}, "CDK5 [4]": {"test_system": "CDK5", "experiment": "CDK5 protein levels after tolfenamic acid treatment", "format": "in vivo, mice", "experimental": "as §2"}, "[5]": {"test_system": "homozygous APP YAC transgenic mice, line R1.40", "experiment": "Morris water maze, learning and long-term memory", "format": "in vivo", "experimental": "In order to examine the ability of tolfenamic acid to improve the learning and memory deficits in AD transgenic mice model, male and female homozygous APP YAC transgenic, line R1.40, and wild type C57BL/6 mice aging between 20-24 months were used. Four groups of similar age and gender variation were administered vehicle or tolfenamic acid daily via oral gavages for 34 days; one transgenic group was administered 5 mg/kg/day tolfenamic acid in corn oil (n=7); the second transgenic group was administered 50 mg/kg/day tolfenamic acid in corn oil (n=7), the third transgenic group was administered corn oil, the vehicle, and the last group which consisted of wild type C57BL/6 mice was administered vehicle (n=8). After 14 days of daily dosing, mice were tested in Morris water maze. In this task, the mice had to locate the hidden platform by learning multiple spatial relationships between the platform and the distal extra-maze cues. On the first day, mice received a habituation trial in which they were allowed to swim freely for 60 seconds. On the following day and for a total of 8 days, mice received training sessions of 3 trials daily. The starting position for each trial was randomly assigned between the four possible positions while the platform position was fixed in each trial. Each animal was allowed to swim until they find the immersed hidden platform or for a maximum of 60 seconds. […]"}, "[6]": {"test_system": "tau phosphorylated at Thr 181", "experiment": "P-tau at Thr 181 by Western blotting", "format": "in vivo, mice", "details": "5 and 50 mg/kg groups vs control, p<0.05", "experimental": "as §3"}}}
{"smiles": "Cc1c(Cl)cccc1Nc1ccccc1C(=O)O", "note": "[tolfenamic acid]", "values": [{"measurement": "reduction of total tau protein levels", "setting": "tau protein", "value": 46, "unit": "%"}, {"measurement": "lowering of CDK5 gene expression in the cerebral cortex", "setting": "CDK5 [1]", "value": "about 50%"}, {"measurement": "improvement in the behavioral profile (spontaneous alternation, Y-maze)", "setting": "[2]; 5 mg/kg/day", "value": "did not reach significance"}, {"measurement": "increase in the spontaneous alternation ratio in Y-maze", "setting": "[2]; 50 mg/kg/day", "value": "significant"}, {"measurement": "lowering of tau mRNA expression", "setting": "tau gene", "value": 48, "unit": "%"}, {"measurement": "lowering of tau phosphorylated at Ser 235", "setting": "[3]", "value": "about 15%"}, {"measurement": "lowering in CDK5 levels from control", "setting": "CDK5 [4]; 50 mg/kg dose group vs control, Tukey-Kramer p<0.05", "value": 40, "unit": "%"}, {"measurement": "CDK5 levels, lowering trend by one-way ANOVA", "setting": "CDK5 [4]; all dose groups, one-way ANOVA F(2,8)=4.086, p=0.059", "value": "not significant"}, {"measurement": "% time spent in the target quadrant, probe trials (long-term memory retention)", "setting": "[5]; 5 and 50 mg/kg/day, Day 1 and 11 following the 8 daily training sessions", "value": "significant increase"}, {"measurement": "spatial learning profile (escape latency) in daily trials", "setting": "[5]; both doses (5 and 50 mg/kg/day), oral gavage, transgenic mice 20-24 months", "value": "improved"}, {"measurement": "lowering of P-tau at Thr 181", "setting": "[6]", "value": "about 30%"}]}
